The numbers were not newly measured in US10188773B2, “Compositions and devices of poly-4-hydroxybutyrate” (Tepha, Inc., priority 2013, dated 2019), which cites them from elsewhere.

The conditions of the series: metabolism in the body; Nelson et al. 1981, Sendelbeck et al. 1985.

As to `O=C(O)CCCO` [4HB, 4-hydroxybutyric acid], the half-life entry was “approximately 27 minutes”.
